Legend:
IL-6R [1] = biological target: T1, IL-6R (Homo sapiens, UniProt P08887); assay: Population pharmacokinetic model: Michaelis coefficient (Km) for target-mediated elimination of Tocilizumab; settings: theoretical, from the Km value of Frey et al.
T1 construct: host or cells: population pharmacokinetic models of patients (Frey et al. 2010; Gibiansky and Frey 2012)
T1 sequence (P08887 20-468): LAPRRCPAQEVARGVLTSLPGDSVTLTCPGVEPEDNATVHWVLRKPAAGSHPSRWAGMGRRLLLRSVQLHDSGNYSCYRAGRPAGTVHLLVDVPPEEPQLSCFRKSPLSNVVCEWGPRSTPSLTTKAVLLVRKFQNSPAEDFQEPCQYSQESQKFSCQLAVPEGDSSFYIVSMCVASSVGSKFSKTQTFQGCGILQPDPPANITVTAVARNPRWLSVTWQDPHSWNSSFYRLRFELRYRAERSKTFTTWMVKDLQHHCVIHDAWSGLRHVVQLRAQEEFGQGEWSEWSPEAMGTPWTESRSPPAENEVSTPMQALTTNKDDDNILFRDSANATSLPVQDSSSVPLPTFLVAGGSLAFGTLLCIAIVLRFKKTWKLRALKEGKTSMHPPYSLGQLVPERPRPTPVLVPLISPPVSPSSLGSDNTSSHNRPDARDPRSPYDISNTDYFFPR

IL-6R [2] = biological target: T1, IL-6R; settings: cited from earlier work
[3] = Simulation of serum Tocilizumab concentration with population pharmacokinetic models (Frey et al.; Gibiansky et al.); settings: set from the Frey and Gibiansky models
Protocol: FIG. 5A is a simulation of changes in serum Tocilizumab concentration when Tocilizumab is administered at 8 mg/kg (intravenous administration: IV) on Day 0, based on the population pharmacokinetic model reported in the article by Frey et al. The vertical axis represents the serum Tocilizumab concentration (μg/mL), and the horizontal axis represents the number of days after administration of Tocilizumab.
FIG. 5B is a simulation of changes in serum Tocilizumab concentration when Tocilizumab is administered at 8 mg/kg (IV) on Day 0, based on the population pharmacokinetic model reported in the article by Gibiansky et al. The vertical axis represents the serum Tocilizumab concentration (μg/mL), and the horizontal axis represents the number of days after administration of Tocilizumab.
FIG. 6A is a simulation of changes in serum Tocilizumab concentration when Tocilizumab is intravenously administered (IV) at 8 mg/kg on Day 0, based on the population pharmacokinetic model reported in the article by Frey et al. The vertical axis represents the serum Tocilizumab concentration (μg/mL), and the horizontal axis represents the number of days after administration of Tocilizumab. […]

[4] = system: patients who manifested CRS after ERY974 administration; assay: ERY101EG study: use of Tocilizumab for the treatment of CRS; format: in vivo, human
Protocol: In the ERY101EG study, Tocilizumab was used alone or in combination with a steroid and such for the treatment of CRS in some patients at the discretion of the clinical trial investigator (Table 11). The severity of CRS ranged from Grade 1 to Grade 3. Tocilizumab was administered on the same day as the manifestation of CRS, with the exception of two patients, two cases (cohort 10A, 840010006, 840010007). In all of the Tocilizumab-administered cases, CRS recovered four days after the day of Tocilizumab administration.

In the case of “Tocilizumab: humanized immunoglobulin G1 (IgG1) kappa anti-human IL-6R monoclonal antibody”, the “Serum concentration of Tocilizumab required for binding to 80% or more of IL-6R” value (IL-6R [1]) is given as no less than 10800 ng/mL, the “Michaelis coefficient (Km) for target-mediated elimination” value (IL-6R [2]; article by Frey et al., patients with rheumatoid arthritis) is given as 2.7 µg/mL and the “Michaelis coefficient (Km value)” value (IL-6R [2]; article by Gibiansky et al.) is given as 0.367 µg/mL. For the same substance, the “Estimated effective serum concentration (target concentration) of Tocilizumab” value [3] was 10 µg/mL, the “Recovery from CRS after the day of Tocilizumab administration” value ([4]; all Tocilizumab-administered cases, CRS Grade 1 to Grade 3, alone or with a steroid) was “four” and the “Duration from Tocilizumab administration to recovery from CRS” value (shortened to “Duration from Tocilizumab administration”) ([4]; patient 840010006, cohort 10A, CRS Grade 3 after 2nd ERY974 (0.81 μg/kg), Tocilizumab 8 mg/kg, 3 days after CRS manifestation) was 4 days. The “Duration from Tocilizumab administration” value ([4]; patient 840010006, cohort 10A, CRS Grade 3 after 3rd ERY974 (0.54 μg/kg), Tocilizumab 8 mg/kg, same day as CRS manifestation) was 3 days, the “Manifestation of CRS after Tocilizumab administration and until the next administration of this agent” value (from here on “Manifestation of CRS”) ([4]; patient 840010006, cohort 10A, after 2nd ERY974 (0.81 μg/kg), Tocilizumab 8 mg/kg) was “None” and the “Presence or absence of CRS recurrence” value ([4]; patient 840010006, cohort 10A, 1 further ERY974 administration (0.54 μg/kg) after Tocilizumab 8 mg/kg) was “Present”. For the same substance, the “Duration from Tocilizumab administration” value ([4]; patient 840010007, cohort 10A, CRS Grade 2, Tocilizumab 8 mg/kg, 6 days after CRS manifestation) was 1 days, the “Presence or absence of CRS recurrence” value ([4]; patient 840010007, cohort 10A, 2 further ERY974 administrations (0.54, 0.81 μg/kg) after Tocilizumab 8 mg/kg) was “Absent” and the “Manifestation of CRS” value ([4]; patient 840010007, cohort 10A, Tocilizumab 8 mg/kg) was “None”. For the same substance, the “Duration from Tocilizumab administration” value ([4]; patient 840020017, cohort 8A, CRS Grade 2, Tocilizumab dose not known, same day as CRS manifestation) was 0 days, the “Presence or absence of CRS recurrence” value ([4]; patient 840020017, cohort 8A, 3 further ERY974 administrations (0.36 μg/kg) after Tocilizumab) was “Absent” and the “Manifestation of CRS” value ([4]; patient 840020017, cohort 8A, Tocilizumab dose not known) was “None”. The “Duration from Tocilizumab administration” value ([4]; patient 840020021, cohort 9A, CRS Grade 1, Tocilizumab 4 mg/kg, same day as CRS manifestation) was 0 days, the “Presence or absence of CRS recurrence” value ([4]; patient 840020021, cohort 9A, 9 further ERY974 administrations (0.54 μg/kg) after Tocilizumab 4 mg/kg) was “Absent” and the “Manifestation of CRS” value ([4]; patient 840020021, cohort 9A, Tocilizumab 4 mg/kg) was “None”. For the same substance, the “Duration from Tocilizumab administration” value ([4]; patient 840020022, cohort 9A, CRS Grade 2, Tocilizumab 4 mg/kg, within 2 hours from CRS manifestation) was 0 days, the “Presence or absence of CRS recurrence” value ([4]; patient 840020022, cohort 9A, 3 further ERY974 administrations (0.54 μg/kg) after Tocilizumab 4 mg/kg) was “Absent” and the “Manifestation of CRS” value ([4]; patient 840020022, cohort 9A, Tocilizumab 4 mg/kg) was “None”. For the same substance, the “Duration from Tocilizumab administration” value ([4]; patient 840020023, cohort 9B, CRS Grade 2, Tocilizumab 4 mg/kg, same day as CRS manifestation) was 0 days, the “Presence or absence of CRS recurrence” value ([4]; patient 840020023, cohort 9B, 19 further ERY974 administrations (0.54 μg/kg) after Tocilizumab 4 mg/kg) was “Absent” and the “Manifestation of CRS” value ([4]; patient 840020023, cohort 9B, Tocilizumab 4 mg/kg) was “None”. The “Duration from Tocilizumab administration” value ([4]; patient 840060002, cohort 8B, CRS Grade 2, Tocilizumab 8 mg/kg, same day as CRS manifestation) was 2 days, the “Presence or absence of CRS recurrence” value ([4]; patient 840060002, cohort 8B, 9 further ERY974 administrations (0.36 μg/kg) after Tocilizumab 8 mg/kg) was “Absent” and the “Manifestation of CRS” value ([4]; patient 840060002, cohort 8B, Tocilizumab 8 mg/kg) was “None”.
